ChEMBL document CHEMBL1909046, “DrugMatrix in vitro pharmacology data”

Experiments:
[1] = DRUGMATRIX: GABAA, Muscimol, Central radioligand binding (ligand: [3H] Muscimol); assay type: cell membranes, Rattus norvegicus, Wistar, Brain, Membrane; conditions: Not Active = under 50% inhibition at 10 µM
[2] = biological target: Beta-1 adrenergic receptor (Homo sapiens, UniProt P08588); assay: DRUGMATRIX: Adrenergic beta1 radioligand binding (ligand: [125I] Cyanopindolol); assay type: cell membranes, CHO-K1, Membrane; conditions: cho-k1; Not Active = under 50% inhibition at 10 µM
Chain of Beta-1 adrenergic receptor (P08588 whole entry): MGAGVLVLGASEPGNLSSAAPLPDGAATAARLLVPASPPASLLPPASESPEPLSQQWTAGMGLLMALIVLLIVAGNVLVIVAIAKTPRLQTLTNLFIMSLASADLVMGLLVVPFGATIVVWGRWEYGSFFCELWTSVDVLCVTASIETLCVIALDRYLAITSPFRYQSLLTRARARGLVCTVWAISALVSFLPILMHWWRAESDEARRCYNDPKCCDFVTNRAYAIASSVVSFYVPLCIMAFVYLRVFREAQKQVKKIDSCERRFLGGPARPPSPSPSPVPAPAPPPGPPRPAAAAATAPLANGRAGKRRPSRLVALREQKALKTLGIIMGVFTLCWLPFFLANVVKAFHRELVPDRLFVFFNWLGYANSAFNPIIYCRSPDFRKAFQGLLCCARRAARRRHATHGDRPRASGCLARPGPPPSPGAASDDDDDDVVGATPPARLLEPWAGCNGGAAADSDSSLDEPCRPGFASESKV

Glucocorticoid receptor = biological target: T1, Glucocorticoid receptor (Homo sapiens, UniProt P04150); conditions: hela s3; also: in other assays of this panel Not Active means under 50% inhibition at 10 µM
T1 sequence (P04150 whole entry): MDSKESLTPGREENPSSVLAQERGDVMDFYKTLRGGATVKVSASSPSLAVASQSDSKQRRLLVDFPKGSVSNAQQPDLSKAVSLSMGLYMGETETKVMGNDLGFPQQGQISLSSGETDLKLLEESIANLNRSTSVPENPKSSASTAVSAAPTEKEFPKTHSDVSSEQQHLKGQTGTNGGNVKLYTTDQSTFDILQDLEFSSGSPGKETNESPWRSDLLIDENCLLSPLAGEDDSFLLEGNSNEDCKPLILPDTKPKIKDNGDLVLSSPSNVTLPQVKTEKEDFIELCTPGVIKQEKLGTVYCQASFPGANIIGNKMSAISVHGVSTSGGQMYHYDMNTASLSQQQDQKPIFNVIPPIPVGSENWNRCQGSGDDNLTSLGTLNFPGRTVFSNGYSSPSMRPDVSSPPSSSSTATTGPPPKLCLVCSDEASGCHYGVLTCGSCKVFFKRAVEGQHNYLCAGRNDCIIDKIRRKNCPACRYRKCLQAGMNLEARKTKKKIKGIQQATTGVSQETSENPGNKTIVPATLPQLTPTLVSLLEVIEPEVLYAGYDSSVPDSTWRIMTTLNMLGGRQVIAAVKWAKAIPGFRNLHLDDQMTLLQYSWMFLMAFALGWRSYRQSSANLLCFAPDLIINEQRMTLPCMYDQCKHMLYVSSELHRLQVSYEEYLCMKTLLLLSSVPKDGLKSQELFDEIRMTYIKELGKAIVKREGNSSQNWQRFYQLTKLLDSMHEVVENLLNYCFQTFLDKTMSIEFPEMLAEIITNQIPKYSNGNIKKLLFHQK

Cytochrome P450 2A6 = biological target: T2, Cytochrome P450 2A6 (Homo sapiens, UniProt P11509); conditions: bti-tn-5b1-4; also: in other assays of this panel Not Active means under 50% inhibition at 10 µM
T2 sequence (P11509 whole entry): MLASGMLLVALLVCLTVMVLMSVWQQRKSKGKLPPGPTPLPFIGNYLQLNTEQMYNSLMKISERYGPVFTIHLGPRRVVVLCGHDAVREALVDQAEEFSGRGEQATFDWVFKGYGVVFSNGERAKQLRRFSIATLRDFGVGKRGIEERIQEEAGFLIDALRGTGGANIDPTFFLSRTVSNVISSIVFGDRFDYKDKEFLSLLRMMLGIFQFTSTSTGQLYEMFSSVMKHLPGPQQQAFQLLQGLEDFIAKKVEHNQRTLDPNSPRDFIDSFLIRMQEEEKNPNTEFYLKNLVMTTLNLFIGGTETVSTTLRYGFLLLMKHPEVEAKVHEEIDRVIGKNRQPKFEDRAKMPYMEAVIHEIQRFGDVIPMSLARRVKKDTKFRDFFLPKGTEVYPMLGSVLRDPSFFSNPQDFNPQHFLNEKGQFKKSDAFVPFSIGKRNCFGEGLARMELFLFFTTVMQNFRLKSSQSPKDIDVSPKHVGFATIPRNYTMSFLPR

[3] = biological target: cGMP-specific 3',5'-cyclic phosphodiesterase (Homo sapiens, UniProt O76074); assay: DRUGMATRIX: Phosphodiesterase PDE5 enzyme inhibition (substrate: [3H]cGMP + cGMP); assay type: tissue-based, Platelet; conditions: platelet; Not Active = under 50% inhibition at 10 µM
[4] = biological target: Beta-2 adrenergic receptor (Homo sapiens, UniProt P07550); assay: DRUGMATRIX: Adrenergic beta2 radioligand binding (ligand: [3H] CGP-12177); assay type: cell membranes, CHO, Membrane; conditions: cho; Not Active = under 50% inhibition at 10 µM
Melanocortin receptor 4 = Melanocortin receptor 4 (Homo sapiens, UniProt P32245); assay type: cell membranes, Membrane; conditions: hek293; also: in other assays of this panel Not Active means under 50% inhibition at 10 µM
Chain of Melanocortin receptor 4 (P32245 whole entry): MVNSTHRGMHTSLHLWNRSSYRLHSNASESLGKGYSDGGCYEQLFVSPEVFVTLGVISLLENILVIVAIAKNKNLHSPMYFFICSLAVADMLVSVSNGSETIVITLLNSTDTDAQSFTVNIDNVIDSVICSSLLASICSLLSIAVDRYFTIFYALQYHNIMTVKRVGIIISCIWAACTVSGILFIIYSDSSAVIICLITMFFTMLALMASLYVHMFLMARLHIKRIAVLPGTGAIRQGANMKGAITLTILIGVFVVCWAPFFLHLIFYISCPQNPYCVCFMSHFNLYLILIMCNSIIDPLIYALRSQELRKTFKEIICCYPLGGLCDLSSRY

Melanocortin receptor 5 = Melanocortin receptor 5 (Homo sapiens, UniProt P33032); assay type: cell membranes, HEK293, Membrane; conditions: hek293; also: in other assays of this panel Not Active means under 50% inhibition at 10 µM
Chain of Melanocortin receptor 5 (P33032 whole entry): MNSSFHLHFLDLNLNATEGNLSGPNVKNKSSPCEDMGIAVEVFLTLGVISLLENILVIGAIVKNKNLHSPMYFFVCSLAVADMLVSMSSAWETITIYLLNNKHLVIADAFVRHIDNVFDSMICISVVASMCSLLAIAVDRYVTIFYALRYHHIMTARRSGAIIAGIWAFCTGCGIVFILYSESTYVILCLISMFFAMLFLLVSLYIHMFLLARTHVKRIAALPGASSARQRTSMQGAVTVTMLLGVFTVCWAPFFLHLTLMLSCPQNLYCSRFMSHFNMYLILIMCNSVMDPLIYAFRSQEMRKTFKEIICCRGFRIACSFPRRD

[5] = DRUGMATRIX: ATPase, Na+/K+ enzyme inhibition (substrate: ATP); assay type: tissue-based, Sus scrofa, Heart; conditions: Not Active = under 50% inhibition at 10 µM

C[C@H](C(=O)O)c1ccc2oc(-c3ccc(F)cc3)nc2c1 [FLUNOXAPROFEN]
Not Active: IC50 [1] | Ki [1] | IC50 [2] | IC50 (Glucocorticoid receptor) | IC50 (Cytochrome P450 2A6) | Ki (Cytochrome P450 2A6) | IC50 [3] | IC50 [4] | IC50 (Melanocortin receptor 4) | IC50 (Melanocortin receptor 5) | IC50 [5] | Ki [5]

CN(CCOc1ccc(C[C@H](Nc2ccccc2C(=O)c2ccccc2)C(=O)O)cc1)c1ccccn1
Not Active: IC50 [1] | Ki [1] | IC50 [2] | IC50 (Glucocorticoid receptor) | IC50 (Cytochrome P450 2A6) | Ki (Cytochrome P450 2A6) | IC50 [3] | IC50 [4] | IC50 (Melanocortin receptor 4) | IC50 (Melanocortin receptor 5) | IC50 [5] | Ki [5]

CCN1CCN(c2cc3c(cc2F)c(=O)c(C(=O)O)cn3C2CC2)CC1 [ENROFLOXACIN]
Not Active: IC50 [1] | Ki [1] | IC50 [2] | IC50 (Glucocorticoid receptor) | IC50 (Cytochrome P450 2A6) | Ki (Cytochrome P450 2A6) | IC50 [3] | IC50 [4] | IC50 (Melanocortin receptor 4) | IC50 (Melanocortin receptor 5) | IC50 [5] | Ki [5]

C[N+](C)(C)CCOP(=O)([O-])OC[C@H](O)CO
Not Active: IC50 [1] | Ki [1] | IC50 [2] | IC50 (Glucocorticoid receptor) | IC50 (Cytochrome P450 2A6) | Ki (Cytochrome P450 2A6) | IC50 [3] | IC50 [4] | IC50 (Melanocortin receptor 4) | IC50 (Melanocortin receptor 5) | IC50 [5] | Ki [5]

O=C(Nc1ccc(Cl)c(Cl)c1)c1cc(Cl)cc(Cl)c1O [3,3',4',5-TETRACHLOROSALICYLANILIDE]
Not Active: IC50 [1] | Ki [1] | IC50 [2] | IC50 (Glucocorticoid receptor) | IC50 (Cytochrome P450 2A6) | Ki (Cytochrome P450 2A6) | IC50 [3] | IC50 [4] | IC50 (Melanocortin receptor 4) | IC50 (Melanocortin receptor 5) | IC50 [5] | Ki [5]

O=c1[nH]c2ccccc2c2ccccc12
Not Active: IC50 [1] | Ki [1] | IC50 [2] | IC50 (Glucocorticoid receptor) | IC50 (Cytochrome P450 2A6) | Ki (Cytochrome P450 2A6) | IC50 [3] | IC50 [4] | IC50 (Melanocortin receptor 4) | IC50 (Melanocortin receptor 5) | IC50 [5] | Ki [5]

C=CCN1CC[C@]23c4c5ccc(O)c4O[C@H]2/C(=N/N=C2\CC[C@@]4(O)[C@H]6Cc7ccc(O)c8c7[C@@]4(CCN6CC=C)[C@H]2O8)CC[C@@]3(O)[C@H]1C5 [NALOXONAZINE]
Not Active: IC50 [1] | Ki [1] | IC50 [2] | IC50 (Glucocorticoid receptor) | IC50 (Cytochrome P450 2A6) | Ki (Cytochrome P450 2A6) | IC50 [3] | IC50 [4] | IC50 (Melanocortin receptor 4) | IC50 (Melanocortin receptor 5) | IC50 [5] | Ki [5]

ClC1=C(Cl)[C@]2(Cl)[C@@H]3[C@@H]4C[C@@H]([C@H]5O[C@@H]45)[C@@H]3[C@@]1(Cl)C2(Cl)Cl [DIELDRIN]
Not Active: IC50 [1] | Ki [1] | IC50 [2] | IC50 (Glucocorticoid receptor) | IC50 (Cytochrome P450 2A6) | Ki (Cytochrome P450 2A6) | IC50 [3] | IC50 [4] | IC50 (Melanocortin receptor 4) | IC50 (Melanocortin receptor 5) | IC50 [5] | Ki [5]

COPPER(II) OXIDE
Not Active: IC50 [1] | Ki [1] | IC50 [2] | Ki [2] | IC50 (Glucocorticoid receptor) | Ki (Glucocorticoid receptor) | IC50 (Cytochrome P450 2A6) | Ki (Cytochrome P450 2A6) | IC50 [3] | Ki [3] | IC50 [4] | Ki [4] | IC50 (Melanocortin receptor 4) | Ki (Melanocortin receptor 4) | IC50 (Melanocortin receptor 5) | Ki (Melanocortin receptor 5) | IC50 [5] | Ki [5]
